# Test results reported in US9770436B2, “Polymorphs of azabicyclohexane” (EUTHYMICS BIOSCIENCE, INC., priority 2004, dated 2017).
# Experiments:
# [1] = Informal storage stability of the Example 1 hydrochloride salt (50% by weight mixture of polymorph forms A and B) in desiccators; polymorph content by XRPD and Raman; assay type: physicochemical; conditions: started as 50% (by weight) A / 50% B, XRPD
# Description: The X-ray powder diffraction pattern (XRPD) analyses of polymorph forms A, B and C were performed with a Shimadzu XRD-6000 X-ray powder diffractometer using Cu Ka radiation. In this procedure the compound as a hydrochloride salt was loaded onto the machine as a crystalline powder. The instrument was equipped with a long fine focus X-ray tube. The tube voltage and amperage were set to 40 kV and 40 mA, respectively. The divergence and scattering slits were set at 1° and the receiving slit was set at 0.15 mm. Diffracted radiation was detected by a Nal scintillation detector. A theta-two theta continuous scan at 3°/min (0.4 sec/0.02° step) from 2.5 to 40° 2θ was used. A silicon standard was analyzed to check the instrument alignment. Data were collected and analyzed using XRD-6000 v. 4.1.
# Briefly, Raman spectra were obtained using a FT-Raman 960 (or 860) spectrometer (Thermo Nicolet) interfaced to an 860 FT-IR. This spectrometer uses an excitation wavelength of 1064 nm. Approximately 0.912 W of Nd:YV04 laser power was used to irradiate the samples. The Raman spectra were measured with an indium gallium arsenide (InGaAs) detector. The samples were pressed into pellets for analysis. A total of 128 sample scans were collected from 3600 or 3700-98 cm^−1 at a spectral resolution of about (±) 4 cm^−1, using Happ-Genzel apodization. Wavelength calibration was performed using sulfur and cyclohexane. The Raman spectra peak positions given below in wavenumbers (cm^−1) for the purified polymorph forms A, B and C of the hydrochloride salt of (+)-1-(3,4-dichlorophenyl)-3-azabicyclo[3.1.0]hexane are subject to an error of about (±) 4 cm^−1.
# Duplicate samples of the hydrochloride salt of (+)-1-(3,4dichlorophenyl)-3-azabicyclo[3.1.0] hexane produced in Example 1 and containing a 50% (by weight) mixture of polymorph form A and polymorph form B were placed on informal stability to test storage in desiccators placed at ambient temperature and at 50° C. in a programmable heating bloc.
# [2] = (+) isomeric form; cited from earlier work
# [3] = Thermodynamic stability of the crystalline polymorph forms; assay type: physicochemical; conditions: pure crystalline structure, acid addition salt
# [4] = 50° C. programmable heating block, after 17 days of storage
# [5] = desiccator, ambient temperature, after 1 week, confirmed by Raman
structure (smiles),measurement,setting,value
"Cl.Clc1ccc(C23CNCC2C3)cc1Cl (stereo not drawn) [Example 1, hydrochloride salt of (+)-1-(3,4dichlorophenyl)-3-azabicyclo[3.1.0] hexane]",content of polymorph form A after storage,[1]; [4],about 50 % (by weight)
same,content of polymorph form C after storage,[1]; [4],50 % (by weight)
same,content of polymorph form A after storage,[1]; [5],40 % (by weight)
same,content of polymorph form B after storage,[1]; [5],60 % (by weight)
"Clc1ccc(C23CNCC2C3)cc1Cl (single isomer, unassigned; (+)) [compound of formula I, (+)-1-(3,4-dichlorophenyl)-3-azabicyclo[3.1.0]hexane]",anti-depressive activity,[2],potent anti-depressive activity
"Cl.Clc1ccc(C23CNCC2C3)cc1Cl (stereo not drawn) [polymorph form A, hydrochloride salt of (+)-1-(3,4-dichlorophenyl)-3-azabicyclo[3.1.0]hexane]",thermodynamic stability of the polymorph form,[3],thermodynamically stable
